ChEMBL document CHEMBL1139297, “Synthesis and stereochemical effects of pyrrolidinyl-acetylenic thieno[3,2-d]pyrimidines as EGFR and ErbB-2 inhibitors” (Bioorg Med Chem Lett, 2009)

How the values were obtained:
BT-474 = experiment: Antiproliferative activity against human BT474 cells overexpressing ERBb2 after 3 days by methylene blue staining; type: functional, cell-based; details: BT-474, 72 h
HN5 = experiment: Antiproliferative activity against human HN5 cells overexpressing EGFR after 3 days by methylene blue staining; details: HN5, 72 h
HFF = experiment: Antiproliferative activity against human HFF cells after 3 days by methylene blue staining; details: 72 h
[1] = biological target: T1, Epidermal growth factor receptor (Homo sapiens, UniProt P00533); experiment: Inhibition of EGFR by scintillation proximity assay
T1 sequence (P00533 whole entry): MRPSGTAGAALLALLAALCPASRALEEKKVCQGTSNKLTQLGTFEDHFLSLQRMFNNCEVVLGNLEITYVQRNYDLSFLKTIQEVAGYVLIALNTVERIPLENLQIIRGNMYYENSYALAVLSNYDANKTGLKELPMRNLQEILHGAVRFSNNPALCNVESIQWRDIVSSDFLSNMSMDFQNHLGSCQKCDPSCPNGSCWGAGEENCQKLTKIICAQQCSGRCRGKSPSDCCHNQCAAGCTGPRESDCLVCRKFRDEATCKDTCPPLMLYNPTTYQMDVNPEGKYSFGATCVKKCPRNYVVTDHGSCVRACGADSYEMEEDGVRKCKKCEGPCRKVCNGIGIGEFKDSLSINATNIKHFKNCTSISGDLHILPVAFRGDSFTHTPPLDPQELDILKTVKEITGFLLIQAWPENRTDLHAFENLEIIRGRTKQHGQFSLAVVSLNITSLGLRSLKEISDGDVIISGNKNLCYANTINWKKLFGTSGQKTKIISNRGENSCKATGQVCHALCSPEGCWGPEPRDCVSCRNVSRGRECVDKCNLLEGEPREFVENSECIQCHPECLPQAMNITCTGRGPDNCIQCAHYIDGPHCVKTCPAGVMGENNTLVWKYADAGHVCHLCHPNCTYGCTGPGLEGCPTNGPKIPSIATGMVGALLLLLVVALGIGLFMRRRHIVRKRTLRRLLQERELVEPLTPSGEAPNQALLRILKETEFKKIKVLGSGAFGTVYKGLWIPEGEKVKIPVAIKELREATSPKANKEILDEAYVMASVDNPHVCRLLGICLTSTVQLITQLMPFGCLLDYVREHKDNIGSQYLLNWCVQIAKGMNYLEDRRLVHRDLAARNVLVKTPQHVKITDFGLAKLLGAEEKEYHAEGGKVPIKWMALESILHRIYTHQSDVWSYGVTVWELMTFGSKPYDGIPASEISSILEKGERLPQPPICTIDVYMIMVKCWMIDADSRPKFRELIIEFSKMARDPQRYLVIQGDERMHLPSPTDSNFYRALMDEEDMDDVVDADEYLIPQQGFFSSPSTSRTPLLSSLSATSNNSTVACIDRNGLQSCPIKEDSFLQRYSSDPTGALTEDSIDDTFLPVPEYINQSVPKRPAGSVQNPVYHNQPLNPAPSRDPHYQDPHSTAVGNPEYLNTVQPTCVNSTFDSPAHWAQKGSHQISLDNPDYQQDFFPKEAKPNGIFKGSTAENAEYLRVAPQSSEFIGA

[2] = biological target: T2, Receptor tyrosine-protein kinase erbB-2 (Homo sapiens, UniProt P04626); experiment: Inhibition of ERBb2 by scintillation proximity assay
T2 sequence (P04626 whole entry): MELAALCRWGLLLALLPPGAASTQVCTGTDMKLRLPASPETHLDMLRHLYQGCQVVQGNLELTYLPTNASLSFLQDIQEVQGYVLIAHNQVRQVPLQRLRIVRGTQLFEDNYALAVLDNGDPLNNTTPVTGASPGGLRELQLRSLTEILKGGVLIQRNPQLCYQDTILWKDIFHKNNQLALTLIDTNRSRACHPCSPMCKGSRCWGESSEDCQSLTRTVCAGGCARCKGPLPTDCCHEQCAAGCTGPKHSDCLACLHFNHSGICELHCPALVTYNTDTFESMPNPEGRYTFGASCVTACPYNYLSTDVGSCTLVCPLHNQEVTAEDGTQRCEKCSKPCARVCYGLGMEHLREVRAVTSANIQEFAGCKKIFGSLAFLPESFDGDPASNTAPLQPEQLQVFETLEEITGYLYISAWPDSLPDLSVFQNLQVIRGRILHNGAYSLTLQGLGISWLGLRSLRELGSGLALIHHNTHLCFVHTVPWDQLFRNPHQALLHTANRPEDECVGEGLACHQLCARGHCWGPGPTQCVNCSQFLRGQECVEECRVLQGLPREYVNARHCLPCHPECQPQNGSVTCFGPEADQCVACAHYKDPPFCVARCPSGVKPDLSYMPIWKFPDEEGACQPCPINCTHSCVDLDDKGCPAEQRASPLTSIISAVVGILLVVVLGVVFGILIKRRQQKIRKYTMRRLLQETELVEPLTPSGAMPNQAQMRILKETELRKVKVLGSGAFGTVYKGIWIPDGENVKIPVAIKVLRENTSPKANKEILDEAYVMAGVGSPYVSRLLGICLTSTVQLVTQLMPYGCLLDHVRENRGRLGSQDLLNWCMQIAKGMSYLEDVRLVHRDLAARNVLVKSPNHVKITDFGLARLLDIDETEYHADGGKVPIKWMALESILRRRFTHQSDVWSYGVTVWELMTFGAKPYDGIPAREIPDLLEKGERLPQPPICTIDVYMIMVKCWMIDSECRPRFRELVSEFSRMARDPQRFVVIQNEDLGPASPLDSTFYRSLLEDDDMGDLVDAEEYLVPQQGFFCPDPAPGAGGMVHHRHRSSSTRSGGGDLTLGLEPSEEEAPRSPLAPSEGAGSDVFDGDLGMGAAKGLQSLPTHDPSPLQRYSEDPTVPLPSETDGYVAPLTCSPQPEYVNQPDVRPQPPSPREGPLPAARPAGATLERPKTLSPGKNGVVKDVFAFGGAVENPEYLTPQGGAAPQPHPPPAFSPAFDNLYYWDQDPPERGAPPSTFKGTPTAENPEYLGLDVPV

[3] = biological target: T1, Epidermal growth factor receptor; experiment: Inhibition of EGFR by HTRF assay
[4] = biological target: T2, Receptor tyrosine-protein kinase erbB-2; experiment: Inhibition of ERBb2 by HTRF assay

| Structure (SMILES) | EC50 (BT-474) [µM] | EC50 (HN5) [µM] | EC50 (HFF) [µM] | IC50 [1] [µM] | IC50 [2] [µM] | IC50 [3] [µM] | IC50 [4] [µM] |
| --- | --- | --- | --- | --- | --- | --- | --- |
| C=CC(=O)Nc1cc2c(Nc3ccc(F)c(Cl)c3)ncnc2cc1OCCCN1CCOCC1 [CANERTINIB] | 0.01 | 0.05 |  |  |  |  |  |
| CNC(=O)O[C@H]1CN[C@H](C#Cc2cc3ncnc(Nc4ccc(OCc5cccc(F)c5)c(Cl)c4)c3s2)C1 | 0.03 | 0.06 | 5 |  |  |  |  |
| CN(C)C(=O)O[C@H]1CN[C@H](C#Cc2cc3ncnc(Nc4ccc(OCc5cccc(F)c5)c(Cl)c4)c3s2)C1 [GSK-182497A] | 0.03 |  | 2.8 |  |  |  |  |
| CCN(CC)C(=O)O[C@H]1CN[C@H](C#Cc2cc3ncnc(Nc4ccc(OCc5cccc(F)c5)c(Cl)c4)c3s2)C1 | 0.08 | 0.25 | 4.3 | 0.063 | 0.05 |  |  |
| CCNC(=O)O[C@@H]1CN[C@@H](C#Cc2cc3ncnc(Nc4ccc(OCc5cccc(F)c5)c(Cl)c4)c3s2)C1 | 0.06 |  |  |  |  | 0.05 |  |
| O=C(O[C@@H]1CN[C@@H](C#Cc2cc3ncnc(Nc4ccc(OCc5cccc(F)c5)c(Cl)c4)c3s2)C1)N1CCOCC1 | 0.05 |  |  |  |  |  |  |
| O=C(O[C@H]1CN[C@H](C#Cc2cc3ncnc(Nc4ccc(OCc5cccc(F)c5)c(Cl)c4)c3s2)C1)N1CCCC1 | 0.06 | 0.12 | 3.5 | 0.099 | 0.032 |  |  |
| CN(C)C(=O)O[C@H]1CN[C@@H](C#Cc2cc3ncnc(Nc4ccc(OCc5cccc(F)c5)c(Cl)c4)c3s2)C1 | 0.01 |  |  |  |  |  |  |
| CCNC(=O)O[C@H]1CN[C@@H](C#Cc2cc3ncnc(Nc4ccc(OCc5cccc(F)c5)c(Cl)c4)c3s2)C1 | 0.02 |  |  |  |  | 0.032 |  |
| CCNC(=O)O[C@@H]1CN[C@H](C#Cc2cc3ncnc(Nc4ccc(OCc5cccc(F)c5)c(Cl)c4)c3s2)C1 | 0.13 |  |  |  |  |  |  |
| CS(=O)(=O)CCNC(=O)O[C@H]1CN[C@H](C#Cc2cc3ncnc(Nc4ccc(OCc5cccc(F)c5)c(Cl)c4)c3s2)C1 | 0.29 | 0.03 | 8.2 |  |  | 0.04 | 0.032 |
| CN(C)C(=O)O[C@@H]1CN[C@@H](C#Cc2cc3ncnc(Nc4ccc(OCc5cccc(F)c5)c(Cl)c4)c3s2)C1 [GSK-238063A] | 0.03 |  |  |  |  |  |  |
| CS(=O)(=O)CCNCc1ccc(-c2ccc3ncnc(Nc4ccc(OCc5cccc(F)c5)c(Cl)c4)c3c2)o1 [LAPATINIB DITOSYLATE] | 0.02 |  |  |  |  |  |  |
| CCN(C)C(=O)O[C@H]1CN[C@H](C#Cc2cc3ncnc(Nc4ccc(OCc5cccc(F)c5)c(Cl)c4)c3s2)C1 | 0.09 | 0.24 | 3 |  |  | 0.05 | 0.032 |
| O=C(O[C@H]1CN[C@H](C#Cc2cc3ncnc(Nc4ccc(OCc5cccc(F)c5)c(Cl)c4)c3s2)C1)N1CCOCC1 [GW869810X] | 0.03 |  | 4.9 |  |  |  |  |
| O=C(O[C@@H]1CN[C@H](C#Cc2cc3ncnc(Nc4ccc(OCc5cccc(F)c5)c(Cl)c4)c3s2)C1)N1CCOCC1 | 0.14 |  |  |  |  |  |  |
| O=C(O[C@H]1CN[C@H](C#Cc2cc3ncnc(Nc4ccc(OCc5cccc(F)c5)c(Cl)c4)c3s2)C1)N1CCNCC1 | 0.1 | 0.4 | 5.1 |  |  | 0.063 | 0.02 |
| O=C(O[C@H]1CN[C@@H](C#Cc2cc3ncnc(Nc4ccc(OCc5cccc(F)c5)c(Cl)c4)c3s2)C1)N1CCOCC1 | 0.12 |  |  |  |  |  |  |
| CCNC(=O)O[C@H]1CN[C@H](C#Cc2cc3ncnc(Nc4ccc(OCc5cccc(F)c5)c(Cl)c4)c3s2)C1 [GSK-192082A] | 0.03 | 0.095 | 4.2 |  |  |  |  |
| CN(C)C(=O)O[C@@H]1CN[C@H](C#Cc2cc3ncnc(Nc4ccc(OCc5cccc(F)c5)c(Cl)c4)c3s2)C1 | 0.23 |  |  |  |  |  |  |
| NC(=O)O[C@H]1CN[C@H](C#Cc2cc3ncnc(Nc4ccc(OCc5cccc(F)c5)c(Cl)c4)c3s2)C1 | 0.025 | 0.1 | 5.5 |  |  | 0.04 | 0.016 |
